The assay concerns the target T1, hDGAT1 (Homo sapiens, UniProt O75907).
T1 sequence (O75907 1-488): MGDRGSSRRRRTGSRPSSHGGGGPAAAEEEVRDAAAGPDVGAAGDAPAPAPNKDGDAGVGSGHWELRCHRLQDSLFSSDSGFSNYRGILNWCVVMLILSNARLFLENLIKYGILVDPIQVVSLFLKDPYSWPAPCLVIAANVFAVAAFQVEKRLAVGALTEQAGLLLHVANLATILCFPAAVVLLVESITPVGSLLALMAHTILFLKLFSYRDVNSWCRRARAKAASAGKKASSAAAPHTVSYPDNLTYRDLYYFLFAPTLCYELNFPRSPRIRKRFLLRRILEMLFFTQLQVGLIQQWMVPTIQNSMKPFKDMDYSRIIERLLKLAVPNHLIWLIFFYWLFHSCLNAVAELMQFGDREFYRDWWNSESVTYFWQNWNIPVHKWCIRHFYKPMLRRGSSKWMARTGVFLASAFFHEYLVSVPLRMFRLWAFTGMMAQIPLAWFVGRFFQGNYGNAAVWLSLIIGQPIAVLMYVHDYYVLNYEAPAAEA
Briefly: In-vitro DGAT1 assay (14C oleoyl CoA, hDGAT1 microsomes from Sf9 cells). As to conditions: read-out: % Inhibition of hDGAT1.

With `CC(C)[C@@H](C(=O)O)N1Cc2ccc(-c3ccc(NC(=S)Nc4cccc(C#N)c4)cc3)cc2C1=O` [Example 70, (S)-2-(6-(4-(3-(3-Cyanophenyl)thioureido)phenyl)-1-oxoisoindolin-2-yl)-3-methylbutanoic acid], the inhibition (usually how much of the control response was suppressed) at 1 µM fell in the range of 10 to 50%.
In the case of `Cc1ccccc1NC(=S)Nc1ccc(-c2ccc3c(c2)C(=O)N([C@H](C(=O)O)C(C)C)C3)cc1` [Example 72, (S)-3-Methyl-2-(1-oxo-6-(4-(3-o-tolylthioureido)phenyl)isoindolin-2-yl)butanoic acid] it was greater than 50%; in that of `COc1ccccc1NC(=S)Nc1ccc(-c2ccc3c(c2)C(=O)N([C@H](C(=O)O)C(C)C)C3)cc1` [Example 74, (S)-2-(6-(4-(3-(2-Methoxyphenyl)thioureido)phenyl)-1-oxoisoindolin-2-yl)-3-methylbutanoic acid], 10 to 50%; in that of `CC(C)[C@@H](C(=O)O)N1Cc2ccc(-c3ccc(NC(=S)Nc4cccc(C(F)(F)F)c4)cc3)cc2C1=O` [Example 76, (S)-3-Methyl-2-(1-oxo-6-(4-(3-(3-(trifluoromethyl)phenyl)thioureido)phenyl)isoindolin-2-yl)butanoic acid], greater than 50%.
For `CC(C)[C@@H](C(=O)O)N1Cc2ccc(-c3ccc(NS(=O)(=O)c4ccc(C#N)cc4)cc3)cc2C1=O` [Example 80, (S)-2-(6-(4-(4-Cyanophenylsulfonamido)phenyl)-1-oxoisoindolin-2-yl)-3-methyl butanoic acid] the value was 10 to 50%.
In the case of `CC(C)[C@@H](C(=O)O)N1Cc2ccc(-c3ccc(NS(=O)(=O)c4ccc(F)c(F)c4)cc3)cc2C1=O` [Example 82, (S)-2-(6-(4-(3,4-Difluorophenylsulfonamido)phenyl)-1-oxoisoindolin-2-yl)-3-methylbutanoic acid] it was 10 to 50%; in that of `CC(C)[C@@H](C(=O)O)N1Cc2ccc(-c3ccc(NS(=O)(=O)c4ccc(F)cc4F)cc3)cc2C1=O` [Example 84, (S)-2-(6-(4-(2,4-Difluorophenylsulfonamido)phenyl)-1-oxoisoindolin-2-yl)-3-methylbutanoic acid], 10 to 50%.
As to `COc1ccc(S(=O)(=O)Nc2ccc(-c3ccc4c(c3)C(=O)N([C@H](C(=O)O)C(C)C)C4)cc2)cc1OC` [Example 86, (S)-2-(6-(4-(3,4-Dimethoxyphenylsulfonamido)phenyl)-1-oxoisoindolin-2-yl)-3-methylbutanoic acid], the inhibition at 1 µM lay in the range of 10 to 50%.
For `COc1ccc(S(=O)(=O)Nc2ccc(-c3ccc4c(c3)C(=O)N([C@H](C(=O)O)C(C)C)C4)cc2)cc1` [Example 90, (S)-2-(6-(4-(4-Methoxyphenylsulfonamido)phenyl)-1-oxoisoindolin-2-yl)-3-methylbutanoic acid] the value was 10 to 50%.
As to `CC(C)[C@@H](C(=O)O)N1Cc2ccc(-c3ccc(NS(=O)(=O)c4ccc(C(F)(F)F)cc4)cc3)cc2C1=O` [Example 92, (S)-3-Methyl-2-(1-oxo-6-(4-(4-(trifluoromethyl)phenylsulfonamido)phenyl)isoindolin-2-yl)butanoic acid], the inhibition at 1 µM lay in the range of 10 to 50%.
Take `CC(C)[C@@H](C(=O)O)N1Cc2ccc(-c3ccc(NS(=O)(=O)Cc4ccccc4)cc3)cc2C1=O` [Example 94, (S)-3-Methyl-2-(1-oxo-6-(4-(phenylmethylsulfonamido)phenyl)isoindolin-2-yl)butanoic acid]: the inhibition at 1 µM was in the range of 10 to 50%.
For `CC(C)[C@@H](C(=O)O)N1Cc2ccc(-c3ccc(NS(=O)(=O)C(C)C)cc3)cc2C1=O` [Example 96, (S)-3-Methyl-2-(6-(4-(1-methylethylsulfonamido)phenyl)-1-oxoisoindolin-2-yl)butanoic acid] the value was 10 to 50%; for `CC(C)[C@@H](C(=O)O)N1Cc2ccc(-c3ccc(NC(=O)c4ccccc4)cc3)cc2C1=O` [Example 98, (S)-2-(6-(4-Benzamidophenyl)-1-oxoisoindolin-2-yl)-3-methylbutanoic acid], 10 to 50%; for `CC(C)[C@@H](C(=O)O)N1Cc2ccc(-c3ccc(NC(=O)c4ccc(F)cc4)cc3)cc2C1=O` [Example 100, (S)-2-(6-(4-(4-Fluorobenzamido)phenyl)-1-oxoisoindolin-2-yl)-3-methylbutanoic acid], greater than 50%.
Regarding `CC(C)[C@@H](C(=O)O)N1Cc2ccc(-c3ccc(NC(=O)c4ccc(C(F)(F)F)cc4)cc3)cc2C1=O` [Example 102, (S)-3-Methyl-2-(1-oxo-6-(4-(4-(trifluoromethyl)benzamido)phenyl)isoindolin-2-yl)butanoic acid], the inhibition at 1 µM was greater than 50%.
As for `COc1ccc(C(=O)Nc2ccc(-c3ccc4c(c3)C(=O)N([C@H](C(=O)O)C(C)C)C4)cc2)cc1` [Example 104, (S)-2-(6-(4-(4-Methoxybenzamido)phenyl)-1-oxoisoindolin-2-yl)-3-methyl butanoic acid], the inhibition at 1 µM was greater than 50%.
In the case of `CC(C)[C@@H](C(=O)O)N1Cc2ccc(-c3ccc(NC(=O)c4cccc(F)c4)cc3)cc2C1=O` [Example 106, (S)-2-(6-(4-(3-Fluorobenzamido)phenyl)-1-oxoisoindolin-2-yl)-3-methylbutanoic acid] it was greater than 50%.
In the case of `CC(C)[C@@H](C(=O)O)N1Cc2ccc(-c3ccc(NC(=O)c4cccc(Cl)c4)cc3)cc2C1=O` [Example 108, (S)-2-(6-(4-(3-Chlorobenzamido)phenyl)-1-oxoisoindolin-2-yl)-3-methylbutanoic acid] it was greater than 50%; in that of `CC(C)[C@@H](C(=O)O)N1Cc2ccc(-c3ccc(NC(=O)c4ccc(F)cc4F)cc3)cc2C1=O` [Example 110, (S)-2-(6-(4-(2,4-Difluorobenzamido)phenyl)-1-oxoisoindolin-2-yl)-3-methyl butanoic acid], greater than 50%; in that of `Cc1ccc(C(=O)Nc2ccc(-c3ccc4c(c3)C(=O)N([C@H](C(=O)O)C(C)C)C4)cc2)cc1` [Example 112, (S)-3-Methyl-2-(6-(4-(4-methylbenzamido)phenyl)-1-oxoisoindolin-2-yl)butanoic acid], greater than 50%.
Regarding `CC(C)[C@@H](C(=O)O)N1Cc2ccc(-c3ccc(NC(=O)c4ccc(Cl)cc4)cc3)cc2C1=O` [Example 114, (S)-2-(6-(4-(4-Chlorobenzamido)phenyl)-1-oxoisoindolin-2-yl)-3-methylbutanoic acid], the inhibition at 1 µM is greater than 50%.
For `CC(C)[C@@H](C(=O)O)N1Cc2ccc(-c3ccc(NC(=O)C4CCCCC4)cc3)cc2C1=O` [Example 118, (S)-2-(6-(4-(Cyclohexanecarboxamido)phenyl)-1-oxoisoindolin-2-yl)-3-methylbutanoic acid] the value was greater than 50%.
For `CC(C)[C@@H](C(=O)O)N1Cc2ccc(-c3ccc(NC(=O)c4ccc5ccccc5c4)cc3)cc2C1=O` [Example 122, (S)-2-(6-(4-(2-Naphthamido)phenyl)-1-oxoisoindolin-2-yl)-3-methylbutanoic acid] the value was greater than 50%; for `CC(C)[C@@H](C(=O)O)N1Cc2ccc(-c3ccc(NC(=O)c4c(F)cccc4C(F)(F)F)cc3)cc2C1=O` [Example 126, (S)-2-(6-(4-(2-Fluoro-6-(trifluoromethyl)benzamido)phenyl)-1-oxoisoindolin-2-yl)-3-methylbutanoic acid], 10 to 50%.
